Measurements taken from ChEMBL document CHEMBL3885861, “Open TG-GATES”.

Species on record: Rattus norvegicus
Assay: Open TG-GATES - Regimen: Single
Format: toxicity, organism-based, Sprague-Dawley
Set-up: regimen Single, gender Male, age 6 weeks
Conditions: in vivo, po, 30 mg/kg, route gavage, dose level Middle; for Bas / Eos / Hb / Ht / Lym / MCH / MCHC / MCV / Mono / Neu / Plat / RBC / Ret / WBC: tissue Blood; for KIDNEY_L / KIDNEY_R / KIDNEY_TOTAL: tissue Kidney; for LIVER: tissue Liver; for A/G / ALP / ALT / AST / BUN / CRE / Ca / Cl / DBIL / GLC / IP / K / LDH / Na / PL / RALB / TBIL / TC / TG / TP / gamma-GTP: tissue Plasma

Cc1ccc2cc3c(ccc4ccccc43)c3c2c1CC3 [3-METHYLCHOLANTHRENE]
TERMINAL_BW (3 h): 211.6 g | Bas (3 h): 0% | Eos (3 h): 0.8% | Hb (3 h): 12.5 g/dL | Ht (3 h): 38.3% | Lym (3 h): 73.4% | MCH (3 h): 20.6 pg | MCHC (3 h): 32.6% | MCV (3 h): 63.1 fL | Mono (3 h): 3.6% | Neu (3 h): 21.4% | Plat (3 h): 120.7 x10_4/uL | RBC (3 h): 607.4 x10_4/ul | Ret (3 h): 10.1% | WBC (3 h): 93.9 x10_2/uL | KIDNEY_L (3 h): 0.9 g | KIDNEY_R (3 h): 0.9 g | KIDNEY_TOTAL (3 h): 1.8 g | LIVER (3 h): 9.5 g | A/G (3 h): 1 | ALP (3 h): 1634.6 IU/L | ALT (3 h): 41.6 IU/L | AST (3 h): 76 IU/L | BUN (3 h): 12.6 mg/dL | CRE (3 h): 0.1 mg/dL | Ca (3 h): 10.9 mg/dL | Cl (3 h): 103.3 meq/L | DBIL (3 h): 0 mg/dL | GLC (3 h): 177.4 mg/dL | IP (3 h): 8.2 mg/dL | K (3 h): 4.2 meq/L | LDH (3 h): 224.4 IU/L | Na (3 h): 139.9 meq/L | PL (3 h): 185.8 mg/dL | RALB (3 h): 2.9 g/dL | TBIL (3 h): 0.008 mg/dL | TC (3 h): 87.2 mg/dL | TG (3 h): 201.5 mg/dL | TP (3 h): 5.7 g/dL | gamma-GTP (3 h): 0.6 IU/L | TERMINAL_BW (6 h): 206.2 g | Bas (6 h): 0% | Eos (6 h): 0% | Hb (6 h): 12.9 g/dL | Ht (6 h): 39.5% | Lym (6 h): 77.6% | MCH (6 h): 20.7 pg | MCHC (6 h): 32.7% | MCV (6 h): 63.5 fL | Mono (6 h): 3.6% | Neu (6 h): 17.2% | Plat (6 h): 124.3 x10_4/uL | RBC (6 h): 622.8 x10_4/ul | Ret (6 h): 9% | WBC (6 h): 124.3 x10_2/uL | KIDNEY_L (6 h): 0.9 g | KIDNEY_R (6 h): 0.9 g | KIDNEY_TOTAL (6 h): 1.8 g | LIVER (6 h): 9 g | A/G (6 h): 1 | ALP (6 h): 1407.6 IU/L | ALT (6 h): 35 IU/L | AST (6 h): 66 IU/L | BUN (6 h): 9 mg/dL | CRE (6 h): 0.1 mg/dL | Ca (6 h): 10.7 mg/dL | Cl (6 h): 104.4 meq/L | DBIL (6 h): 0 mg/dL | GLC (6 h): 169 mg/dL | IP (6 h): 8.9 mg/dL | K (6 h): 4.3 meq/L | LDH (6 h): 174.6 IU/L | Na (6 h): 140.3 meq/L | PL (6 h): 158.2 mg/dL | RALB (6 h): 2.9 g/dL | TBIL (6 h): 0.008 mg/dL | TC (6 h): 80.8 mg/dL | TG (6 h): 101.9 mg/dL | TP (6 h): 5.7 g/dL | gamma-GTP (6 h): 0.7 IU/L | TERMINAL_BW (9 h): 206.5 g | Bas (9 h): 0% | Eos (9 h): 0.6% | Hb (9 h): 12.7 g/dL | Ht (9 h): 39.4% | Lym (9 h): 73.2% | MCH (9 h): 20.7 pg | MCHC (9 h): 32.2% | MCV (9 h): 64.3 fL | Mono (9 h): 3.6% | Neu (9 h): 21.6% | Plat (9 h): 127.5 x10_4/uL | RBC (9 h): 612.8 x10_4/ul | Ret (9 h): 9.1% | WBC (9 h): 119.4 x10_2/uL | KIDNEY_L (9 h): 0.9 g | KIDNEY_R (9 h): 0.9 g | KIDNEY_TOTAL (9 h): 1.8 g | LIVER (9 h): 8.6 g | A/G (9 h): 1 | ALP (9 h): 1625.8 IU/L | ALT (9 h): 34.6 IU/L | AST (9 h): 64.2 IU/L | BUN (9 h): 10.4 mg/dL | CRE (9 h): 0.1 mg/dL | Ca (9 h): 10.5 mg/dL | Cl (9 h): 103.9 meq/L | DBIL (9 h): 0.002 mg/dL | GLC (9 h): 178.4 mg/dL | IP (9 h): 10.2 mg/dL | K (9 h): 4.5 meq/L | LDH (9 h): 153.6 IU/L | Na (9 h): 141.7 meq/L | PL (9 h): 160 mg/dL | RALB (9 h): 2.8 g/dL | TBIL (9 h): 0.004 mg/dL | TC (9 h): 84 mg/dL | TG (9 h): 109.2 mg/dL | TP (9 h): 5.6 g/dL | gamma-GTP (9 h): 0.8 IU/L | TERMINAL_BW (24 h): 216.2 g | Bas (24 h): 0% | Eos (24 h): 0.2% | Hb (24 h): 12.6 g/dL | Ht (24 h): 38.1% | Lym (24 h): 80.6% | MCH (24 h): 20.6 pg | MCHC (24 h): 32.9% | MCV (24 h): 62.6 fL | Mono (24 h): 3.8% | Neu (24 h): 14.2% | Plat (24 h): 127.8 x10_4/uL | RBC (24 h): 608 x10_4/ul | Ret (24 h): 8% | WBC (24 h): 107.4 x10_2/uL | KIDNEY_L (24 h): 0.9 g | KIDNEY_R (24 h): 0.9 g | KIDNEY_TOTAL (24 h): 1.9 g | LIVER (24 h): 11 g | A/G (24 h): 1 | ALP (24 h): 2072.4 IU/L | ALT (24 h): 41.2 IU/L | AST (24 h): 77.2 IU/L | BUN (24 h): 13.7 mg/dL | CRE (24 h): 0.1 mg/dL | Ca (24 h): 10.9 mg/dL | Cl (24 h): 103.4 meq/L | DBIL (24 h): 0 mg/dL | GLC (24 h): 173.8 mg/dL | IP (24 h): 7.1 mg/dL | K (24 h): 4.7 meq/L | LDH (24 h): 281.4 IU/L | Na (24 h): 141.5 meq/L | PL (24 h): 165.2 mg/dL | RALB (24 h): 2.8 g/dL | TBIL (24 h): 0.004 mg/dL | TC (24 h): 82.6 mg/dL | TG (24 h): 152.7 mg/dL | TP (24 h): 5.5 g/dL | gamma-GTP (24 h): 0.9 IU/L
